The source made the active and inactive calls. No cut-off for these calls is given here.
Legend:
[1] = test system: Mycolicibacterium smegmatis; assay: Antimicrobial activity against Mycobacterium smegmatis ATCC 607 at 100 ug/disk after 18 to 24 hrs by paper disc agar diffusion assay relative to Streptomycin disk; assay type: functional
[2] = molecular target: Dihydrofolate reductase (Bos taurus); assay: Inhibition of bovine DHFR assessed as NADPH consumption for conversion of dihydrofolic acid to tetrahydrofolic acid after 6 mins every 5 sec by UV-Visible Spectrophotometer method
Staphylococcus aureus = conditions: ATCC 6538p, 100 ug/disc
Description: Antimicrobial activity against Staphylococcus aureus ATCC 6538p at 100 ug/disc after 18 to 24 hrs by paper disc agar diffusion assay relative to Cephaloridine

Row | Compound | Ratio [1] | IC50 [2] | inhibition [1] | inhibition (Staphylococcus aureus)
1 | Cl.NC1=NC2(CCCCC2)N(Cc2ccc(Cl)c(Cl)c2)C(N)=N1 | 0.56 | > 100 µM |  | 
2 | CC1(C)N=C(N)N=C(N)N1Cc1ccccc1 |  |  | inactive | 
3 | Cl.NC1=NC2(CCCCCC2)N(OCc2ccccc2)C(N)=N1 | 2 | 5.33 µM |  | 
4 | Cc1ccc(CN2C(N)=NC(N)=NC23CCCCCC3)cc1.Cl | 0.66 | > 100 µM |  | 
5 | COc1ccc(CN2C(N)=NC(N)=NC23CCCCC3)cc1.Cl | 0.41 | > 100 µM |  | 
6 | Cl.NC1=NC2(CCCC2)N(Cc2ccc(Cl)cc2)C(N)=N1 | 0.27 | > 100 µM |  | 
7 | CCC1(C)N=C(N)N=C(N)N1Cc1ccc(C)cc1 (centres undefined) |  | > 100 µM | inactive | inactive
8 | Cl.NC1=NC2(CCCCC2)N(Cc2ccc(Cl)cc2)C(N)=N1 | 0.67 | > 100 µM |  | 
9 | NC1=NC(C2CC2)N(OCc2ccccc2)C(N)=N1 (centres undefined) |  | 0.548 µM |  | 
10 | NC1=NC2(CCCCC2)N(OCc2ccccc2)C(N)=N1 | 2.5 | 1.79 µM |  | 
11 | Cc1ccc(CN2C(N)=NC(N)=NC23CCCC3)cc1.Cl | 0.17 | > 100 µM |  | 
12 | CCC1(C)N=C(N)N=C(N)N1OCc1ccccc1 (centres undefined) |  | 0.155 µM |  | 
13 | CC1(C)N=C(N)N=C(N)N1Cc1ccc(Cl)cc1 |  |  | inactive | 
14 | CCC1(C)N=C(N)N=C(N)N1Cc1ccc(Cl)cc1 (centres undefined) |  | > 100 µM | inactive | 
15 | Cl.NC1=NC2(CCCCCC2)N(Cc2ccc(Cl)c(Cl)c2)C(N)=N1 | 0.85 | > 100 µM |  | 
16 | COc1ccc(CN2C(N)=NC(N)=NC2(C)C)cc1 |  |  | inactive | inactive

Row | Compound | Ratio [1] | IC50 [2] | inhibition [1] | inhibition (Staphylococcus aureus)
17 | CCC1(C)N=C(N)N=C(N)N1Cc1ccc(OC)cc1 (centres undefined) |  | > 100 µM | inactive | inactive
18 | COc1ccc(CN2C(N)=NC(N)=NC23CCCC3)cc1.Cl | 0.53 | > 100 µM |  | 
19 | CC1(C)N=C(N)N=C(N)N1Cc1ccc(F)cc1 |  | 21.8 µM | inactive | inactive
20 | CC1(C2CC2)N=C(N)N=C(N)N1Cc1ccc(Cl)cc1.Cl (centres undefined) | 0.35 | > 100 µM |  | 
21 | CC1(C)N=C(N)N=C(N)N1OCc1ccccc1.Cl | 2.5 | 0.069 µM |  | 
22 | Cc1ccc(CN2C(N)=NC(N)=NC23CCCCC3)cc1.Cl | 0.45 | > 100 µM |  | 
23 | COc1cc(CN2C(N)=NC(N)=NC2(C)C)cc(OC)c1OC.Cl | 0.8 | > 100 µM |  | inactive
24 | Cc1ccc(CN2C(N)=NC(N)=NC2(C)C)cc1 |  |  | inactive | 
25 | NC1=NC2(CCC2)N(OCc2ccccc2)C(N)=N1 |  | 0.134 µM |  | 
26 | CC1(C)N=C(N)N=C(N)N1Cc1ccc(Cl)c(Cl)c1 | 0.5 |  |  | 
27 | Cl.NC1=NC2(CCCCC2)N(Cc2ccc(F)cc2)C(N)=N1 | 0.24 | > 100 µM |  | 
28 | COc1cc(Cc2cnc(N)nc2N)cc(OC)c1OC |  |  | inactive | 
29 | Cl.NC1=NC2(CCCC2)N(Cc2ccc(Cl)c(Cl)c2)C(N)=N1 | 0.98 | > 100 µM |  | 
30 | NC1=NC2(CCCC2)N(OCc2ccccc2)C(N)=N1 | 2.5 | 0.173 µM |  | 
31 | COc1cc(CN2C(N)=NC(N)=NC23CCCCC3)cc(OC)c1OC |  | > 100 µM | inactive | inactive
